Earlier results, collected in US11000475B2, “Ophthalmic solution of difluprednate” (Sun Pharma Advanced Research Company Limited, priority 2015, dated 2021).

Structure (SMILES): CCCC(=O)O[C@]1(C(=O)COC(C)=O)CCC2[C@@H]3CC(F)C4=CC(=O)C=C[C@]4(C)C3(F)[C@@H](O)C[C@@]21C (stereo partly shown) [Difluprednate]
- solubility in aqueous vehicle: practically insoluble
